# Test results from patent publication US8809498B2, “Pepstatin A derivatives” (priority 2008, dated 2014).
# Non-standard residues stand in square brackets, D forms with d. Residues, ends and D or L forms follow the SMILES beside them. *: point of attachment. Phe(3-F) = N[C@@H](Cc1cccc(F)c1)C(=O)O; Phe(2-F) = N[C@@H](Cc1ccccc1F)C(=O)O; Sta = CC(C)C[C@H](N)[C@@H](O)CC(=O)O; Isovaleryl = CC(C)CC(=O)*
# What was measured:
# Type in all cases: biochemical
# Sap1 of Candida albicans = Sap1 of Candida albicans (Candida albicans, UniProt P0CY27); assay: Inhibition of proteolytic activity of Sap1 (resorufin-marked casein, fluorescence)
# Procedure: (§1) For this purpose, that inhibitor concentration was determined in vitro at which the proteolytic activity of the enzyme or its velocity of metabolizing a substrate, respectively, was reduced for 50%.
# (§2) The proteolytic activity of the tested Saps was determined at the pH optimum of those Saps. Resorufin-marked casein was used as substrate. Proteolysis of casein can be detected by an increase in fluorescence due to released resorufin (a fluorescence marker) by proteolysis.
# (§3) Sap1, Sap3 and Sap6 of Candida albicans were independently dissolved in 2-(N-morpholino)ethanesulfonic acid (MES) having a concentration of 10 mmol/l and a pH of 6.5 resulting in enzyme solutions having a Sap concentration of 100 mmol/l. After one hour incubation at room temperature, 80 μl of a substrate solution comprising resorufin-marked casein in a sodium citrate buffer having a concentration of 500 mmol/l and a pH of 3.5 (in case of Sap3), 4.5 (in case of Sap1) and 5.0 (in case of Sap6) were added to 20 μl of enzyme solution. The resulting Sap concentration was 5 nmol/l. The resulting casein concentration was chosen such that the Saps could work in excess of substrate. Different Sap inhibitors were added, resulting in a final inhibitor concentration of 1 nmol/1, 2 nmol/1, 5 nmol/1, 10 nmol/l, nmol/l or 50 nmol/l in each case. One enzyme-substrate sample was left without addition of inhibitor. All experiments were performed in triplicate.
# (§4) The mixture of enzyme and substrate or of enzyme, substrate and inhibitor was incubated at 37° C. under agitation at 300 rpm (rounds per minute) for 60 min in each case. Afterwards, 20 μl of a trichloroacetic acid solution (30%, w/v) were added. The mixture was placed on ice for 5 minutes and centrifuged afterwards for 3 min at 6000 rpm. The supernatant was removed.
# (§5) To carry out fluorescence measurements, 100 μl of the supernatant were mixed with 100 μl Tris-HCl (trishydroxymethylaminomethane-HCl) having a concentration of 1 mol/l and a pH of 10.0. The fluorescence of this mixture was measured directly after adding Tris-HCl using an excitation wavelength of 530 nm and an emission wavelength of 590 nm on a CytoFluor 2350 apparatus (Millipore, Bedford, Mass., USA), wherein sensitivity was set to 2 and bandwidth was set to 7.
# (§6) The average of three independent fluorescence measurements was calculated. The fluorescence of enzyme without inhibitor (i.e. inhibitor concentration of 0 nmol/l) was set to 100% enzyme activity. The activity of inhibited enzyme was calculated accordingly from the fluorescence of inhibited enzyme with respect to fluorescence of enzyme without inhibitor. Finally, the enzyme activity was plotted against the inhibitor concentration and the IC50 value was determined.
# Sap3 of Candida albicans = Sap3 of Candida albicans (Candida albicans, UniProt P0CY29); assay: Inhibition of proteolytic activity of Sap3 (resorufin-marked casein, fluorescence)
# Procedure: as §1, §2, §3, §4, §5, §6
# Sap5 = Sap5 (Candida albicans, UniProt P43094); assay: Inhibition of proteolytic activity of Sap5
# Procedure: as §1, §2, §4, §5, §6
# Sap6 of Candida albicans = Sap6 of Candida albicans (Candida albicans, UniProt Q5AC08); assay: Inhibition of proteolytic activity of Sap6 (resorufin-marked casein, fluorescence)
# Procedure: as §1, §2, §3, §4, §5, §6
# Saps of Candida albicans = assay: Overall Sap inhibition (summary of table 1); details: table 1 summary
# Procedure: as §1, §2
# as §3, with “Different Sap inhibitors were added, resulting in a final inhibitor concentration of 1 nmol/1, 2 nmol/1, 5 nmol/1, 10 nmol/l, nmol/l or 50 nmol/l in each case. One enzyme-substrate sample was left without addition of inhibitor. All experiments were performed in triplicate.” left out
# as §5, §6
# Chain of Sap6 of Candida albicans (Q5AC08 77-418): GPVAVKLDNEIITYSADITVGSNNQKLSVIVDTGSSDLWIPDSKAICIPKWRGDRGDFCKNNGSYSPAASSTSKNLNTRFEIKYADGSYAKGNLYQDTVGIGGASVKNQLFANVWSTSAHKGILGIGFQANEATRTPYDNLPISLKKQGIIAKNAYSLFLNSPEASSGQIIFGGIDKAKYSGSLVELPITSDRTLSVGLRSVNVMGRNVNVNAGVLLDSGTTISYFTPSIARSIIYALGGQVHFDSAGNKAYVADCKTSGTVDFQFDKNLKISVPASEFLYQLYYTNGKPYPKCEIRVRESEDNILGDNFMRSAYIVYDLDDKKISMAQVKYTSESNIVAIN
# Chain of Sap5 (P43094 77-418): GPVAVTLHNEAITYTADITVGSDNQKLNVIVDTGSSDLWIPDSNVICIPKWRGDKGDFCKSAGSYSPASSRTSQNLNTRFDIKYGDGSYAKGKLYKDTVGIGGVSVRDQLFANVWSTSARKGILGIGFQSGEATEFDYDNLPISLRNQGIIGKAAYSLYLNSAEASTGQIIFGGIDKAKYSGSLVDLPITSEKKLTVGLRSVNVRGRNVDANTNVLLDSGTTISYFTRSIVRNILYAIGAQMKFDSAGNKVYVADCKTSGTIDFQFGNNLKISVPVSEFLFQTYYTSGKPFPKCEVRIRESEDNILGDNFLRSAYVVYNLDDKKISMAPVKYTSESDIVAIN
# Chain of Sap3 of Candida albicans (P0CY29 59-398): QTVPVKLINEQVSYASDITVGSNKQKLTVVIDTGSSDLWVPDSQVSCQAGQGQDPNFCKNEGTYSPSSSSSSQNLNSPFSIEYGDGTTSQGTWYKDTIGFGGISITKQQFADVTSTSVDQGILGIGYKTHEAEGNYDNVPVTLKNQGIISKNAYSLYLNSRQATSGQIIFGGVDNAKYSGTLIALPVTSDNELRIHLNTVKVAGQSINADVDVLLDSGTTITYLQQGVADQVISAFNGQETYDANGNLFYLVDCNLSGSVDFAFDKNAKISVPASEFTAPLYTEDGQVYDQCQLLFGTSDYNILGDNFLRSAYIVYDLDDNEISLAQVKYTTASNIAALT
# Chain of Sap1 of Candida albicans (P0CY27 51-391): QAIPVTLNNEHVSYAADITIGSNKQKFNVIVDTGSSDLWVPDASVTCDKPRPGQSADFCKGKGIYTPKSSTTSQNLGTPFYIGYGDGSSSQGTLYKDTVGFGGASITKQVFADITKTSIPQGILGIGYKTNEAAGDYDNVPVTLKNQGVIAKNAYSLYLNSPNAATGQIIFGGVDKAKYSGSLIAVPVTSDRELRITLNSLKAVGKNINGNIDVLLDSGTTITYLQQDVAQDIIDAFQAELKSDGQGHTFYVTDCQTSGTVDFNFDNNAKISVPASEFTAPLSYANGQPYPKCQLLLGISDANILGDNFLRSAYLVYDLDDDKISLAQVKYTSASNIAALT
SMILES,IC50 (Sap1 of Candida albicans),IC50 (Sap3 of Candida albicans),IC50 (Sap5),IC50 (Sap6 of Candida albicans),"IC50 values, range (Saps of Candida albicans)"
"CC(C)CN(C[C@@H](O)[C@H](Cc1ccccc1)NC(=O)O[C@H]1CCOC1)S(=O)(=O)c1ccc(N)cc1 [Amprenavir, reference compound]",~5000 nM,~20000 nM,~33000 nM,> 50000 nM,in the range of micromole per litre
"Cc1cccc(C)c1OCC(=O)N[C@@H](Cc1ccccc1)[C@@H](O)C[C@H](Cc1ccccc1)NC(=O)[C@H](C(C)C)N1CCCNC1=O [Lopinavir, reference compound]",312000 nM,> 312000 nM,> 312000 nM,> 312000 nM,in the range of micromole per litre
"CC(C)CC(=O)N[C@@H](Cc1cccc(F)c1)C(=O)N[C@H](C(=O)N[C@@H](CC(C)C)[C@@H](O)CC(=O)N[C@@H](C)C(=O)N[C@@H](CC(C)C)[C@@H](O)CC(=O)O)C(C)C [P3(m-FPhe)-pepstatin, (N-Iva-mFPhe)-Val-Sta-Ala-Sta] (Isovaleryl-[Phe(3-F)]V[Sta]A[Sta]-OH)",10 nM,~10 nM,~10 nM,10 nM,
"CC(C)CC(=O)N[C@@H](Cc1ccccc1F)C(=O)N[C@H](C(=O)N[C@@H](CC(C)C)[C@@H](O)CC(=O)N[C@@H](C)C(=O)N[C@@H](CC(C)C)[C@@H](O)CC(=O)O)C(C)C [P3(o-FPhe)-pepstatin, (N-Iva-oFPhe)-Val-Sta-Ala-Sta] (Isovaleryl-[Phe(2-F)]V[Sta]A[Sta]-OH)",~20 nM,~20 nM,~50 nM,~100 nM,
CC(C)CC(=O)N[C@H](C(=O)N[C@H](C(=O)N[C@@H](CC(C)C)[C@@H](O)CC(=O)N[C@@H](C)C(=O)N[C@@H](CC(C)C)[C@@H](O)CC(=O)O)C(C)C)C(C)C [Pepstatin A] (Isovaleryl-VV[Sta]A[Sta]-OH),~7 nM,~1 nM,5 nM,~7 nM,
CC(C)c1nc(CN(C)C(=O)N[C@H](C(=O)N[C@@H](Cc2ccccc2)C[C@H](O)[C@H](Cc2ccccc2)NC(=O)OCc2cncs2)C(C)C)cs1 [Ritonavir],,,,,in the range of micromole per litre
